In experiment [1] the target is T1, Renin (Homo sapiens, UniProt P00797).
T1 sequence (P00797 whole entry): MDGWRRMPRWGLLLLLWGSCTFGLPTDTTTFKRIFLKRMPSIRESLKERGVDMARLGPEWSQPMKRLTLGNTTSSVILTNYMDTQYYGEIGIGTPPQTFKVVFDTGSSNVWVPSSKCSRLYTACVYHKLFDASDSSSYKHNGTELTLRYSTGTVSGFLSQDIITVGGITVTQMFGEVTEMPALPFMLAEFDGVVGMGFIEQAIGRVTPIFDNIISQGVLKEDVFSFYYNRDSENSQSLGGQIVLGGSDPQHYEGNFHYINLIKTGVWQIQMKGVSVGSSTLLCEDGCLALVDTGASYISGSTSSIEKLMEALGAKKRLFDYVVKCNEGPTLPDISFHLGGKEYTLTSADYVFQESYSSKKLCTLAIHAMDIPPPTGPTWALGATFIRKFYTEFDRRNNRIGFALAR
The experiment in a line: Evaluated in vitro for inhibitory potency against renin.

For experiment [2], the target named is Pepsin A (Sus scrofa) (UniProt P00791). The experiment in a line: Evaluated for the percentage of inhibition of porcine pepsin at E-5M concentration.
Experiment [3] concerns the target T2, Cathepsin D (Bos taurus) (UniProt P80209).
T2 sequence (whole entry): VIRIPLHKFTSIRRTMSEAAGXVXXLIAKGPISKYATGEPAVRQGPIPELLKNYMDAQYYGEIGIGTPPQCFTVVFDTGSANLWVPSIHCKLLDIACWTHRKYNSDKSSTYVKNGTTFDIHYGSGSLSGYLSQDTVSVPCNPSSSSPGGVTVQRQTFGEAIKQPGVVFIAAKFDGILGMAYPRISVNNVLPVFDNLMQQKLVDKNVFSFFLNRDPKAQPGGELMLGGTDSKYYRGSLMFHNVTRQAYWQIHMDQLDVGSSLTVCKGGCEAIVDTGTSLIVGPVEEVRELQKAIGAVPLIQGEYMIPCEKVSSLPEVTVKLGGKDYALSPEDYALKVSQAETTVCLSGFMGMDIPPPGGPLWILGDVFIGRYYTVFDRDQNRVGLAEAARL
Nature of the experiment: Evaluated for the percentage of inhibition of bovine cathepsin D at E-5M concentration.

The target in experiment [4] is T3, Renin (Homo sapiens) (UniProt P00797).
T3 sequence (whole entry): T1 sequence (P00797 whole entry)
The experiment in a line: Evaluated in vitro for inhibitory potency against renin at 10e-6 M.

Experiment [5] addresses T3, Renin (Homo sapiens). Nature of the experiment: Evaluated in vitro for inhibitory potency against renin at 10e-5 M.
The target in experiment [6] is T2, Cathepsin D (Bos taurus). The experiment in a line: Compound is evaluated for the percentage of inhibition of […] 10e-5 M concentration in, bovine cathepsin D.
Experiment [7] concerns the target Pepsin A (Sus scrofa) (UniProt P00791). Nature of the experiment: Compound is evaluated for the percentage of inhibition of […] 10 e-5M concentration in porcine pepsin.

The structures appear in SMILES notation.

Sequence of Pepsin A (Sus scrofa) (P00791 60-385 limits assumed): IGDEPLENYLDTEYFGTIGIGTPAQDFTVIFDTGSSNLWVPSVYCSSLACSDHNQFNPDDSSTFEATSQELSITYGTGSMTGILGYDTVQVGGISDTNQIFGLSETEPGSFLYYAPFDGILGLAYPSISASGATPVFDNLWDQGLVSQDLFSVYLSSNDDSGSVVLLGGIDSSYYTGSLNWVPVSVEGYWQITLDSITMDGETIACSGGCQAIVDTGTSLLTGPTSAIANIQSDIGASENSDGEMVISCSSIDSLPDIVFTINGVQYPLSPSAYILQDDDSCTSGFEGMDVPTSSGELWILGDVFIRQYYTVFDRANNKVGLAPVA

One may read the IC50 as the concentration that inhibits the measured activity by half. High values mean a need for much substance, low ones inhibition by little substance. Compound `O=C(NC(Cc1cnc[nH]1)C(=O)N[C@@H](CC1CCCCC1)[C@@H](O)CSC1CCCCC1)C(Cc1ccccc1)Cc1ccccc1` (stereo not given in full) registered an IC50 in experiment [1] of 20 nM.
Turning to `CC(C)CC(NC(=O)C(Cc1ccccc1)Cc1ccccc1)C(=O)N[C@@H](CC1CCCCC1)[C@@H](O)CS(=O)(=O)C(C)C` (stereo not given in full), it took 25 nM to reach half-maximal inhibition in experiment [1] (IC50).
Turning to `CC(C)S(=O)(=O)C[C@H](O)[C@H](CC1CCCCC1)NC(=O)[C@H](Cc1c[nH]cn1)NC(=O)[C@H](COCc1ccccc1)NC(=O)OC(C)(C)C`, the IC50 in experiment [1] is 75 nM.
The compound `CC(C)CSC[C@H](O)[C@H](CC1CCCCC1)NC(=O)[C@H](Cc1c[nH]cn1)NC(=O)[C@H](Cc1ccccc1)NC(=O)OC(C)(C)C` came in with an IC50 in experiment [1] of 6.5 nM.
On the same count and under the same terms, as for `CC(C)S(=O)(=O)C[C@H](O)[C@H](CC1CCCCC1)NC(=O)C(Cc1cnc[nH]1)NC(=O)C(Cc1ccccc1)Cc1ccccc1` (stereo not given in full), the figure is 70 nM.
As usually defined, the inhibition is the relative decrease from the control value, in per cent. High values mean a strong effect, low ones a weak effect. `CC(C)S(=O)(=O)C[C@H](O)[C@H](CC1CCCCC1)NC(=O)[C@H](Cc1ccccc1)NC(=O)[C@H](Cc1ccccc1)NC(=O)OC(C)(C)C`: the inhibition in experiment [2] is 4%; in experiment [3], 0%. The IC50 in experiment [1] came to 30 nM.
For `CC(C)S(=O)(=O)C[C@H](O)[C@H](CC1CCCCC1)NC(=O)[C@H](C)NC(=O)[C@H](Cc1ccccc1)NC(=O)OC(C)(C)C`, the results for the inhibition in experiment [2] and in experiment [3] were 0% and 55%, respectively. The compound further had an IC50 in experiment [1] of 70 nM.
On to `CC(C)(C)OC(=O)N[C@@H](Cc1ccccc1)C(=O)N[C@@H](Cc1c[nH]cn1)C(=O)N[C@@H](CC1CCCCC1)[C@@H](O)CS(C)(=O)=O`, for which inhibition in experiment [1] was half-maximal at 40 nM (IC50).
In experiment [1], `CC(C)S(=O)(=O)C[C@H](O)[C@H](CC1CCCCC1)NC(=O)[C@H](CCCCNC(=O)OCc1ccccc1)NC(=O)[C@H](Cc1ccccc1)NC(=O)OC(C)(C)C` returned an IC50 of 100 nM.
On the same count and under the same terms, the same measure for `O=C(NC(Cc1cnc[nH]1)C(=O)N[C@@H](CC1CCCCC1)[C@@H](O)CS(=O)(=O)C1CCCCC1)C(Cc1ccccc1)Cc1ccccc1` (stereo not given in full): 40 nM; for `CC(C)S(=O)(=O)C[C@H](O)[C@H](CC1CCCCC1)NC(=O)[C@H](CCO)NC(=O)[C@H](Cc1ccccc1)NC(=O)OC(C)(C)C`: 20 nM; for `CC(C)S(=O)(=O)C[C@H](O)[C@H](CC1CCCCC1)NC(=O)[C@H](Cc1c[nH]cn1)NC(=O)[C@@H](N)[C@@H](C)OCc1ccccc1`: 300 nM.
On to `CC(C)S(=O)(=O)C[C@H](O)[C@H](CC1CCCCC1)NC(=O)[C@H](Cc1c[nH]cn1)NC(=O)[C@H](Cc1ccccc1)NC(=O)OC(C)(C)C`, for which the inhibition in experiment [2] and in experiment [3] was 0% each time. In experiment [1], this compound displayed an IC50 of 2 nM.
For `CC(C)S(=O)(=O)C[C@H](O)[C@H](CC1CCCCC1)NC(=O)[C@H](Cc1c[nH]cn1)NC(=O)[C@@H](NC(=O)OC(C)(C)C)[C@@H](C)OCc1ccccc1`, the inhibition in experiment [2] and in experiment [3] was 0% in each case. The compound further came in with an IC50 in experiment [1] of 5.5 nM.
The compound `CC(=O)NCCCC[C@H](NC(=O)[C@H](Cc1ccccc1)NC(=O)OC(C)(C)C)C(=O)N[C@@H](CC1CCCCC1)[C@@H](O)CS(=O)(=O)C(C)C` had an IC50 in experiment [1] of 300 nM.
In experiment [4], `CC(C)S(=O)(=O)C[C@H](O)[C@H](CC1CCCCC1)NC(=O)[C@H](CCCN)NC(=O)[C@H](Cc1ccccc1)NC(=O)OC(C)(C)C` displayed an inhibition of 43%.
`CC(C)S(=O)(=O)C[C@H](O)[C@H](CC1CCCCC1)NC(=O)[C@H](Cc1c[nH]cn1)NC(=O)[C@H](Cc1ccccc1)NC(=O)CC(C)(C)C` [listing 1 of 3 here]: half-maximal inhibition in experiment [1] (IC50) was put at 3.5 nM.
Consider `CC(C)C(=O)N[C@H](C(=O)N[C@@H](Cc1c[nH]cn1)C(=O)N[C@@H](CC1CCCCC1)[C@@H](O)CS(=O)(=O)C(C)C)[C@@H](C)OCc1ccccc1`, for which the IC50 in experiment [1] amounted to 10 nM.
`CC(C)S(=O)(=O)C[C@H](O)[C@H](CC1CCCCC1)NC(=O)[C@H](Cc1c[nH]cn1)NC(=O)[C@H](Cc1ccccc1)NC(=O)CC(C)(C)C` [listing 2 of 3 here] came in with an IC50 in experiment [1] of 3 nM.
For the compound `CC(C)S(=O)(=O)C[C@H](O)[C@H](CC1CCCCC1)NC(=O)[C@H](CO)NC(=O)[C@H](Cc1ccccc1)NC(=O)OC(C)(C)C`, the inhibition worked out at 0% in experiment [2] and 47% in experiment [3]. Moreover, the IC50 in experiment [1] was 40 nM.
Take `CC(C)(C)OC(=O)NC(Cc1c[nH]cn1)C(=O)N[C@@H](CC1CCCCC1)[C@@H](O)CS(=O)(=O)C1CCCCC1` (stereo not given in full): the inhibition in experiment [5] came to 5%.
In the case of `CC(C)S(=O)(=O)C[C@H](O)[C@H](CC1CCCCC1)NC(=O)C(Cc1c[nH]cn1)NC(=O)[C@@H](Cc1ccccc1)NC(=O)OC(C)(C)C` (stereo not given in full), the inhibition in experiment [2] and in experiment [3] was 0% each time. The compound further came in with an IC50 in experiment [1] of 150 nM.
The compound `CC(C)(C)OC(=O)N[C@@H](Cc1ccccc1)C(=O)N[C@@H](Cc1c[nH]cn1)C(=O)N[C@@H](CC1CCCCC1)[C@@H](O)CSC1CCCCC1` registered an IC50 in experiment [1] of 4 nM. The inhibition in experiment [6] came out at 0%; in experiment [7], 9%.
Regarding `CC(C)SC[C@H](O)[C@H](CC1CCCCC1)NC(=O)[C@H](C)NC(=O)[C@H](Cc1ccccc1)NC(=O)OC(C)(C)C`, the IC50 in experiment [1] was determined as 9.9 nM.
Compound `CC(C)S(=O)(=O)C[C@H](O)[C@H](CC1CCCCC1)NC(=O)[C@H](CCCNC(=O)OCc1ccccc1)NC(=O)[C@H](Cc1ccccc1)NC(=O)OC(C)(C)C` displayed an IC50 in experiment [1] of 60 nM.
In experiment [1], `CCOC(=O)N[C@H](C(=O)N[C@@H](Cc1c[nH]cn1)C(=O)N[C@@H](CC1CCCCC1)[C@@H](O)CS(=O)(=O)C(C)C)[C@@H](C)OCc1ccccc1` came in with an IC50 of 20 nM.
In experiment [4], `CC(C)S(=O)(=O)C[C@H](O)[C@H](CC1CCCCC1)NC(=O)[C@H](CCCCN)NC(=O)[C@H](Cc1ccccc1)NC(=O)OC(C)(C)C` yielded an inhibition of 34%.
As to `CSC[C@H](O)[C@H](CC1CCCCC1)NC(=O)[C@H](Cc1c[nH]cn1)NC(=O)[C@H](Cc1ccccc1)NC(=O)OC(C)(C)C`, half-maximal inhibition in experiment [1] (IC50) was put at 10 nM.
In experiment [1], `CC(C)C[C@H](NC(=O)[C@H](Cc1ccccc1)NC(=O)OC(C)(C)C)C(=O)N[C@@H](CC1CCCCC1)[C@@H](O)CS(=O)(=O)C(C)C` registered an IC50 of 4 nM.
With `CC(C)S(=O)(=O)C[C@H](O)[C@H](CC1CCCCC1)NC(=O)[C@@H](NC(=O)[C@H](Cc1ccccc1)NC(=O)OC(C)(C)C)[C@@H](C)OCc1ccccc1`, the inhibition in experiment [2] turned out to be 18%; in experiment [3], 95%. In experiment [1], this compound returned an IC50 of 6 nM.
For `CC(C)S(=O)(=O)C[C@H](O)[C@H](CC1CCCCC1)NC(=O)C(Cc1c[nH]cn1)NC(=O)C(Cc1ccccc1)Cc1ccccc1` (stereo not given in full), the inhibition in experiment [2] and in experiment [3] was 0% each time.
`CC(C)S(=O)(=O)C[C@H](O)[C@H](CC1CCCCC1)NC(=O)[C@@H](NC(=O)[C@H](Cc1ccccc1)NC(=O)OC(C)(C)C)[C@@H](C)O`: inhibition in experiment [1] was half-maximal at 8 nM (IC50).
As to `O=C(NC(Cc1c[nH]cn1)C(=O)N[C@@H](CC1CCCCC1)[C@@H](O)CSC1CCCCC1)C(Cc1ccccc1)Cc1ccccc1` (stereo not given in full), the inhibition in experiment [2] and in experiment [3] was 0% each time.
For the compound `CCOC(=O)N[C@@H](Cc1ccccc1)C(=O)N[C@@H](Cc1c[nH]cn1)C(=O)N[C@@H](CC1CCCCC1)[C@@H](O)CS(=O)(=O)C(C)C`, the IC50 in experiment [1] turned out to be 5 nM.
For `COc1ccc(C[C@H](NC(=O)OC(C)(C)C)C(=O)N[C@@H](Cc2c[nH]cn2)C(=O)N[C@@H](CC2CCCCC2)[C@@H](O)CS(=O)(=O)C(C)C)cc1`, the inhibition in experiment [2] and in experiment [3] was 0% in each case. The IC50 in experiment [1] amounted to 3 nM.
On to `CC(C)(C)OC(=O)N[C@@H](Cc1ccccc1)C(=O)N[C@@H](Cc1c[nH]cn1)C(=O)N[C@@H](CC1CCCCC1)[C@H](O)CSC1CCCCC1`, for which inhibition in experiment [1] was half-maximal at 100 nM (IC50).
Consider `CC(C)S(=O)(=O)C[C@H](O)[C@H](CC1CCCCC1)NC(=O)[C@H](Cc1c[nH]cn1)NC(=O)[C@H](Cc1ccccc1)NC(=O)CC(C)(C)C` [listing 3 of 3 here], for which the inhibition in experiment [2] and in experiment [3] was 0% each time.
Take `CC(C)(C)OC(=O)N[C@@H](Cc1ccccc1)C(=O)N[C@@H](Cc1c[nH]cn1)C(=O)N[C@@H](Cc1ccccc1)[C@@H](O)CSC1CCCCC1`: the inhibition in experiment [2] turned out to be 4%; in experiment [3] it was 0%. This compound also yielded an IC50 in experiment [1] of 15 nM.
In turn, `O=C(COc1ccccc1)NC(Cc1c[nH]cn1)C(=O)N[C@@H](CC1CCCCC1)[C@@H](O)CSC1CCCCC1` (stereo not given in full) gave an IC50 in experiment [1] of 430 nM.
With `CC(C)SC[C@H](O)[C@H](CC1CCCCC1)NC(=O)[C@H](Cc1c[nH]cn1)NC(=O)[C@H](Cc1ccccc1)NC(=O)OC(C)(C)C`, in experiment [1], the IC50 amounted to 4 nM. For the same compound, the inhibition in experiment [6] and in experiment [7] was 0% in each case.
